Values belong to the molecule of their own block, whether it stands above or below them.
Experiment: photoluminescence quantum yield (fraction); solvent given as SMILES

photoluminescence quantum yield (in CC#N): 0.057
SMILES: N#C/C(=C\c1ccc(C(F)(F)F)cc1)c1nc(-c2ccc(Cl)cc2)cs1

photoluminescence quantum yield (in ClC(Cl)Cl): 0.57
SMILES: F[B-]1(F)OC(c2cc3c4c(c2)CCCN4CCC3)=Cc2cccc[n+]21

photoluminescence quantum yield (in ClC(Cl)Cl): 0.073
SMILES: CCCCCCN1C(=O)c2cccc3cc(/N=C\c4c[nH]c5c4ccc4ccccc45)cc(c23)C1=O

photoluminescence quantum yield (in CCC(C)C): 0.27
photoluminescence quantum yield (in ClCCl): 0.16
SMILES: c1csc(-c2ccc(-c3ccc(-c4cccs4)s3)s2)c1

photoluminescence quantum yield (in CC#N): 0.3
SMILES: [NH3+]C1(c2ccc3cc(O)ccc3c2)C2CC3CC(C2)CC1C3 (stereo unspecified)

photoluminescence quantum yield (in CCO): 0.582
SMILES: Nc1ccc2nc3c4ccccc4c(=[NH2+])cc-3oc2c1

photoluminescence quantum yield (in C1CCCCC1): 0.61
photoluminescence quantum yield (in C1CCOC1): 0.38
photoluminescence quantum yield (in CC#N): 0.11
SMILES: Cn1nc(-c2ccccc2)c2nc3cc(F)ccc3nc21

photoluminescence quantum yield (in ClC(Cl)Cl): 0.827
SMILES: COc1ccc(-c2ccc(-c3c4c(nc5ccccc35)-c3cc5c(cc3CC4)-c3nc4ccccc4c(-c4ccc(-c6ccc(OC)cc6)cc4)c3CC5)cc2)cc1

photoluminescence quantum yield (in CCO): 0.0246
photoluminescence quantum yield (in ClCCl): 0.0632
photoluminescence quantum yield (in O): 0.02
SMILES: O=Cc1ccc(-c2ccc(O)c(-c3nc4ccccc4s3)c2)o1

photoluminescence quantum yield (in C1CCOC1): 0.49
SMILES: F[B-]1(F)Oc2ccccc2-c2n(-c3ccc(C(F)(F)F)cc3)c(-c3ccccc3)c(-c3ccccc3)[n+]21

photoluminescence quantum yield (in ClCCl): 0.27
SMILES: CC(C)(C)NC(=O)c1ccc(-c2cc3ccccc3s2)c2ccc3c4ccccc4c4ccccc4c3c12

photoluminescence quantum yield (in CCCCCC): 0.21
photoluminescence quantum yield (in CO): 0.24
photoluminescence quantum yield (in ClCCl): 0.41
SMILES: CC(C)c1ccc2ccc3cccc4ccc1c2c34

photoluminescence quantum yield (in C1CCCCC1): 0.6
SMILES: c1cc(-c2ccc3c(c2)CCCO3)ccc1-c1ccc2c(c1)CCCO2

photoluminescence quantum yield (in ClC(Cl)Cl): 0.37
SMILES: CCCN1c2ccccc2Sc2cc(/C=C\c3cc(=O)oc4c(O)c(O)ccc34)ccc21

photoluminescence quantum yield (in CCO): 0.117
SMILES: CC1(C)C(/C=C/C2=C(Cl)C(=C/C=C3/N(Cc4ccccc4)c4ccccc4C3(C)C)/CCC2)=[N+](Cc2ccccc2)c2ccccc21

photoluminescence quantum yield (in C1CCCCC1): 0.005
photoluminescence quantum yield (in CO): 0.007
SMILES: CN(C)c1ccc(/C=C/c2nc3ccccc3o2)cc1

photoluminescence quantum yield (in ClCCl): 0.33
SMILES: CC(C)(C)c1ccc(-c2cc(-c3ccc(-c4cc(-c5ccc(C(C)(C)C)cc5)c(C(=O)NCc5ccccc5)s4)s3)sc2C(=O)NCc2ccccc2)cc1

photoluminescence quantum yield (in CCO): 0.02
SMILES: Cc1cc(=O)oc2cc3cc(-c4cn(Cc5ccccc5)nn4)ccc3cc12

photoluminescence quantum yield (in CCO): 0.12
photoluminescence quantum yield (in CO): 0.06
photoluminescence quantum yield (in CS(C)=O): 0.24
SMILES: CN1/C(=C/C=C(/C=C/c2sc3ccccc3[n+]2C)c2cccc(C(F)(F)F)c2)Sc2ccccc21

photoluminescence quantum yield (in ClCCl): 0.57
SMILES: c1ccc2cc(-c3c4ccccc4c(-c4nccc5ccccc45)c4ccccc34)ccc2c1

photoluminescence quantum yield (in ClCCl): 0.43
SMILES: CC(=O)c1ccc(-c2cccc3ncc(-c4ccccc4)n23)cc1

photoluminescence quantum yield (in C1COCCO1): 0.53
photoluminescence quantum yield (in CC#N): 0.45
photoluminescence quantum yield (in CCCCOCCCC): 0.49
photoluminescence quantum yield (in CCOC(C)=O): 0.43
SMILES: Clc1nc(Nc2ccccc2)nc(Nc2ccc3c4cccc5cccc(c6cccc2c63)c54)n1

Second part, the molecule before the results:

SMILES: Nc1cccc2c1-c1ccccc1C2=O
photoluminescence quantum yield (in C1CCCCC1): 0.035
photoluminescence quantum yield (in CC#N): 0.012
photoluminescence quantum yield (in CCO): 0.00024
photoluminescence quantum yield (in c1ccccc1): 0.074

SMILES: CCC1=C(C)C2=Cc3cc(I)c(I)n3[B-](F)(F)[N+]2=C1C
photoluminescence quantum yield (in C1CCCCC1): 0.26
photoluminescence quantum yield (in CC(C)=O): 0.16
photoluminescence quantum yield (in CCO): 0.2
photoluminescence quantum yield (in CCOC(C)=O): 0.19
photoluminescence quantum yield (in CO): 0.17
photoluminescence quantum yield (in OCC(F)(F)F): 0.12

SMILES: CCN(CC)c1ccc(/C=N/Nc2ccc(C#N)cc2)c(O)c1
photoluminescence quantum yield (in CO): 0.21

SMILES: CC1=c2c3c4cccc5cccc(c=3c(C)[n+]2[B-](F)(F)n2c(C)c3cc6c(-c7ccccc7)c7c(c(-c8ccccc8)c6cc3c21)-c1cccc2cccc-7c12)c54
photoluminescence quantum yield (in ClCCl): 0.7

SMILES: O=C(c1ccncc1)c1ccc(-n2c3ccc(-n4c5ccccc5c5ccccc54)cc3c3cc(-n4c5ccccc5c5ccccc54)ccc32)cc1
photoluminescence quantum yield (in Cc1ccccc1): 0.243
photoluminescence quantum yield (in c1cc(-c2cccc(-n3c4ccccc4c4ccccc43)c2)cc(-n2c3ccccc3c3ccccc32)c1): 0.96

SMILES: CCCCC(CC)CN1C(=O)C2=C(c3ccc(-c4ccc(C5=C6C(C)=CC(C)=[N+]6[B-](F)(F)n6c(C)cc(C)c65)cc4)s3)N(CC(CC)CCCC)C(=O)C2=C1c1ccc(-c2ccc(C3=C4C(C)=CC(C)=[N+]4[B-](F)(F)n4c(C)cc(C)c43)cc2)s1 (stereo unspecified)
photoluminescence quantum yield (in Cc1ccccc1): 0.45

SMILES: CCCCCCCCCCCCOc1cc2cc(N(C)C)ccc2cc1C=O
photoluminescence quantum yield (in ClCCl): 0.93

SMILES: C[N+]1=C(/C=C/C=C2/N(CCC[N+](C)(C)C)c3ccccc3C2(C)C)C(C)(C)c2ccccc21
photoluminescence quantum yield (in CS(C)=O): 0.08

SMILES: O=C1c2cc(F)ccc2-c2cnccc21
photoluminescence quantum yield (in CC#N): 0.015
photoluminescence quantum yield (in CCCCCC): 0.0017
photoluminescence quantum yield (in CCOC(C)=O): 0.02
photoluminescence quantum yield (in Cc1ccccc1): 0.012
photoluminescence quantum yield (in ClCCl): 0.018

SMILES: Cc1ccc(C)cc1
photoluminescence quantum yield (in C1CCCCC1): 0.39

SMILES: CC(=O)OC[C@H]1O[C@@H](OCC#Cc2ccc(C3=C4C(C)=CC(/C=C/c5ccc([N+](C)(C)C)cc5)=[N+]4[B-](F)(F)n4c(/C=C/c5ccc([N+](C)(C)C)cc5)cc(C)c43)cc2)[C@H](OC(C)=O)C(OC(C)=O)[C@@H]1OC(C)=O (stereo partly specified)
photoluminescence quantum yield (in CC#N): 0.72

SMILES: Nc1ccc2c(c1)Cc1ccccc1-2
photoluminescence quantum yield (in C1CCCCC1): 0.74
photoluminescence quantum yield (in C1COCCO1): 0.73
photoluminescence quantum yield (in CC#N): 0.52
photoluminescence quantum yield (in CO): 0.84
photoluminescence quantum yield (in O): 0.2

SMILES: N#Cc1cc(C#N)c(-n2c3ccccc3c3c(-c4cccc5c4c4ccccc4n5-c4cc(-n5c6ccccc6c6ccccc65)c(C#N)cc4C#N)cccc32)cc1-n1c2ccccc2c2ccccc21
photoluminescence quantum yield (in O=P(c1ccccc1)(c1ccccc1)c1ccccc1Oc1ccccc1P(=O)(c1ccccc1)c1ccccc1): 0.61

SMILES: CC1(C)c2ccccc2N(c2ccc(-c3ccc(C#N)cc3)cc2)c2ccccc21
photoluminescence quantum yield (in Cc1ccccc1): 0.178
photoluminescence quantum yield (in N#Cc1ccc2c(c1)c1ccccc1n2-c1cccc(-n2c3ccccc3c3ccccc32)c1): 0.36

SMILES: CCC1=C(C)C2=C(C)c3cccn3[B-](F)(F)[N+]2=C1C
photoluminescence quantum yield (in C1CCCCC1): 0.96
photoluminescence quantum yield (in CC(C)=O): 0.79
photoluminescence quantum yield (in CCO): 0.84
photoluminescence quantum yield (in CCOC(C)=O): 0.84
photoluminescence quantum yield (in CO): 0.76
photoluminescence quantum yield (in OCC(F)(F)F): 0.75

SMILES: CC(C)[Si]1(C(C)C)c2cc(C#N)ccc2-c2ccc(N(c3ccccc3)c3ccccc3)cc21
photoluminescence quantum yield (in C1CCCCC1): 0.64
photoluminescence quantum yield (in CC#N): 0.67
photoluminescence quantum yield (in CCO): 0.72
photoluminescence quantum yield (in CCOCC): 0.74
photoluminescence quantum yield (in CS(C)=O): 0.81
photoluminescence quantum yield (in ClCCl): 0.8
photoluminescence quantum yield (in c1ccccc1): 0.75

SMILES: C(=C\c1ccc(/C=C/c2ccc(N(c3ccccc3)c3ccccc3)cc2)cc1)/c1ccc(/C=C/c2ccc(N(c3ccccc3)c3ccccc3)cc2)cc1
photoluminescence quantum yield (in ClCCl): 0.84

SMILES: CC(C)(C)c1ccc2c(c1)c1cc(C(C)(C)C)ccc1n2-c1ccc(C#Cc2ccc3c4ccc(C#Cc5ccc(C=C(C#N)C#N)cc5)cc4n(-c4ccc(C(F)(F)F)cc4)c3c2)cc1
photoluminescence quantum yield (in ClCCl): 0.12

SMILES: N#Cc1cc(-n2c3ccccc3c3ccccc32)c(-n2c3ccccc3c3ccccc32)cc1C#N
photoluminescence quantum yield (in C1CCOC1): 0.125
photoluminescence quantum yield (in Cc1ccccc1): 0.465
photoluminescence quantum yield (in c1ccc2c(c1)c1ccccc1n2-c1ccc(-c2ccc(-n3c4ccccc4c4ccccc43)cc2)cc1): 0.6

SMILES: COC(=O)[C@@]12N=N[C@@](C(=O)OC)(C3C4CCC(C4)C31)[C@@H]1CC12 (stereo partly specified)
photoluminescence quantum yield (in CC#N): 0.041

SMILES: CCCCCCOc1cc(/C=C/c2cc(OCCCCCC)c(/C=C/c3cc(OCCCCCC)c(C=O)cc3OCCCCCC)cc2OCCCCCC)c(OCCCCCC)cc1C=O
photoluminescence quantum yield (in ClCCl): 0.52

SMILES: N#CC(C#N)=Cc1ccc2c(c1)c1ccccc1n2-c1cc2ccccc2c2ccccc12
photoluminescence quantum yield (in CC#N): 0.09
photoluminescence quantum yield (in CCCCC): 0.16
photoluminescence quantum yield (in Cc1ccccc1): 0.16
photoluminescence quantum yield (in ClCCl): 0.04

SMILES: CC(C)[Si](C#Cc1c2cc3ccccc3cc2c(C#C[Si](C)(C)C)c2cc3ccccc3cc12)(C(C)C)C(C)C
photoluminescence quantum yield (in ClCCl): 0.13

SMILES: CC(C)c1cc(C(C)C)c(-c2nnc(-c3ccc(-n4c5ccccc5c5ccccc54)cc3)o2)c(C(C)C)c1
photoluminescence quantum yield (in Cc1ccccc1): 0.61

SMILES: CCC1(CC)c2cc(C#Cc3cccs3)ccc2-c2c1c1c(c3c2C(CC)(CC)c2cc(C#Cc4cccs4)ccc2-3)C(CC)(CC)c2cc(C#Cc3cccs3)ccc2-1
photoluminescence quantum yield (in C1CCOC1): 0.58

SMILES: c1csc(-c2cnc(-c3cccs3)c3nonc23)c1
photoluminescence quantum yield (in C1CCCCC1): 0.54
photoluminescence quantum yield (in CC(C)=O): 0.39
photoluminescence quantum yield (in CCCCCC): 0.54
photoluminescence quantum yield (in CCCO): 0.22
photoluminescence quantum yield (in CCO): 0.19
photoluminescence quantum yield (in CCOCC): 0.52
photoluminescence quantum yield (in CO): 0.15
photoluminescence quantum yield (in Cc1ccccc1): 0.35
photoluminescence quantum yield (in ClC(Cl)(Cl)Cl): 0.43
photoluminescence quantum yield (in ClC(Cl)Cl): 0.35
photoluminescence quantum yield (in O=[N+]([O-])c1ccccc1): 0.2
photoluminescence quantum yield (in OCC(O)CO): 0.03
photoluminescence quantum yield (in OCc1ccccc1): 0.12
photoluminescence quantum yield (in c1ccc2ncccc2c1): 0.25
photoluminescence quantum yield (in c1ccccc1): 0.4
photoluminescence quantum yield (in c1ccncc1): 0.23

SMILES: c1ccc2c(c1)Cc1ccccc1N2c1c2ccccc2c(N2c3ccccc3Cc3ccccc32)c2ccccc12
photoluminescence quantum yield (in Cc1ccccc1): 0.06

SMILES: CC(C)(C)c1ccc(Oc2cc3c4c(cc(Oc5ccc(C(C)(C)C)cc5)c5c6c(Oc7ccc(C(C)(C)C)cc7)cc7c8c(cc(Oc9ccc(C(C)(C)C)cc9)c(c2c45)c86)C(=O)N(c2ccccc2)C7=O)C(=O)N(c2ccccc2)C3=O)cc1
photoluminescence quantum yield (in ClC(Cl)Cl): 0.86

SMILES: CC(C)=CCN1C(=O)c2cccc3c2c(cc2oc(C)nc23)C1=O
photoluminescence quantum yield (in CCO): 0.011

SMILES: Cc1c(C)c(B(c2c(C)c(C)c(C#N)c(C)c2C)c2c(C)c(C)c(N3c4ccccc4Oc4ccccc43)c(C)c2C)c(C)c(C)c1C#N
photoluminescence quantum yield (in c1ccc([Si](c2ccccc2)(c2ccc(-n3c4ccccc4c4ccccc43)cc2)c2ccc(-n3c4ccccc4c4ccccc43)cc2)cc1): 0.67

SMILES: CCCCCOc1cc2oc(=O)c3c4ccc(N(c5ccccc5)c5ccccc5)cc4c4ccc5cccc6c(c1)c2c3c4c56
photoluminescence quantum yield (in C1CCOC1): 0.752

SMILES: C=Cc1cc2ccc(N(CC)CC)cc2oc1=O
photoluminescence quantum yield (in CC#N): 0.98
